Measured values: paper PMC11091243, “PD-L1 targeted peptide demonstrates potent antitumor and immunomodulatory activity in cancer immunotherapy” (Frontiers in Immunology, 2024)

Columns and labels:
CD4+ T cells in MLR = experiment: Mixed lymphocyte reaction (DCs, CT26 tumor cells, CD4+ T cells); format: cell-based, mouse; conditions: 20 μmol/L, versus control and control peptides, day 3, n = 3
Protocol: Fresh PBMCs were cultured in IMDM at 37°C for 2 hours and washed twice in PBS. Then cells were cultured in IMDM supplemented with 10% FBS, 25 ng/mL GM-CSF, and 50 ng/mL IL-4. Fresh medium was added every three days. TNF-α (50 ng/mL) was added on the sixth day to stimulate the maturation of dendritic cells (DCs) for 24 hours. The mature DCs were then frozen to be harvested later. Solid tumor tissues from the CT26 tumor-bearing animal have been removed and fragmented to collect tumor cells. In RPMI 1640 medium supplemented with 10% FBS, 2 mM L-glutamine, […] streptomycin, and 200 U/mL penicillin, these fragments were subjected to digestion with a combination of triple enzymes (collagenase, DNase, and hyaluronidase) for a maximum of 2 hours. The resultant cell suspension was then grown in complete RPMI 1640 medium at 37°C with 5% CO2 for 24 hours. The goal of this culture phase was to re-establish PD-L1 expression on the tumor cell surface since collagenase digestion may have destroyed it. DCs and tumor cells were both given a 2-hour treatment with mitomycin C (MMC) at a dosage of 100 μg/mL before the start of mixed lymphocyte responses (MLR). After thawing, the CD4+ T cells were cultured for overnight. […] Cell growth and IFN-γ levels in culture supernatants were measured on day 3.

[1] = test system: PD-L1-mediated suppression of CD4+ T cells; experiment: T-cell activation assay (CD4+ T cells on anti-CD3/PD-L1 coated plates); format: cell-based, mouse
Protocol: Following the manufacturer’s instructions, mouse peripheral blood mononuclear cells (PBMCs) were isolated from a healthy mouse using separation fluid. Then, CD4 (L3T4) MicroBeads were used to separate CD4+ T cells from PBMCs, and a CD4-PE/Cy5 antibody was employed to determine effectiveness. Cells were adjusted to a concentration of 5×10^5 cells/mL in IMDM supplemented with 10% FBS and 20 ng/mL IL-2 to produce CD4+ T-cell blasts. A 1:1 ratio of mouse T-activator CD3/CD28 beads was introduced to the cells. Every other day, new media was added, and on day 7, cells were collected and stored for later use. 100 μL of anti-mouse CD3 (1 μg/mL) were applied to each well and incubated at 4°C overnight. Next, the wells were rinsed twice with […] of PBS. The wells were then filled with 100 μL of PD-L1 […] and the plates were incubated at 37°C for 3 hours before receiving two PBS washes. Then, varying quantities of PD-L1 monoclonal antibodies and peptides (PPL-C or control peptide) were added to the appropriate wells, and the plates were incubated at 37°C for an hour. The wells were then washed twice with PBS. Finally, CD4^+ T cells (5×10^4 cells/well) were added, then centrifugated the plate at 1,000 RMP for 2 min. The cells were then cultured for three days at 37°C in a humidified incubator with 5% CO2. A mouse IFN-γ ELISA Kit was used to assess the quantity of IFN-γ in culture supernatant. […]

CT26 cells [2] = experiment: Cytotoxicity of spleen lymphocytes of treated mice against CT26 cells (CCK8); format: cell-based, mouse; conditions: CT26:lymphocyte 1:2, 48 h, CCK8, n = 6, versus untreated and control peptide groups
Protocol: After 14 consecutive days of administration, total lymphocytes were isolated from mouse spleens using Ficoll density gradient fractionation, which was provided by Shanghai Biotech Bioengineering. Before co-incubation with lymphocytes, CT26 cells were treated with 100 μg/mL mitomycin C (MMC) for 2 hours for […] experiments. For cytotoxicity experiments, about 1×10^6 tumor cells were seeded in each well with a CT26: lymphocyte ratio of 1: 2 in 200 μL RIPM medium plus 10% FBS for 48 h. A corresponding negative control group was also designed. During the final two hours of the incubation, 10 µL of CCK8 reagent was added to each well following the manufacturer’s instructions (Biotech Bioengineering Cat: E606335). Using an ELISA plate reader (Molecular Devices, USA) the absorbance was determined at 450 nm. There were three duplicates of each experiment.

[3] = test system: splenic lymphocyte subsets of CT26-bearing Balb/c mice; experiment: Flow cytometry of spleen lymphocytes of CT26-bearing mice after treatment; format: in vivo; conditions: mouse, in vivo
Protocol: The mice’s tumor volumes were measured by calipers after they were randomly allocated to various treatment groups. Every day tumor volumes were measured along axes (a and b) that are orthogonal to one another, and they were estimated by the equation tumor volume = π/6 × a × b^2. After the tumor was established (approximately 7 days), each group was subcutaneously injected with PPL-C (6 or 11 mg/kg), control peptide (11 mg/kg), endotoxin-free PD-L1 antibody (200 μg), or control antibody, following specific treatment procedures outlined in the flow chart. The Kaplan-Meier technique was used to determine survival differences for each group, and the log-rank test using the survival R package version 2.38-3 was applied to get the overall p-value.
To differentiate lymphocytes, spleen monocytes were separated via isodensity centrifugation. For flow cytometry evaluation, cell-surface and intracellular staining was achieved through reagents from BD Biosciences or Biolegend, following previously described protocols. Re-suspending the 1× 10^6 cells in 100 μL of PBS before incubating them with the appropriate antibodies. Data were collected using a BD Biosciences FACSCalibur flow cytometer, Germany, and analyzed using FlowJo 7.6 software, USA. Based on scatter signals and 7-Amino-actinomycin D fluorescence, dead cells, and cell debris were removed from the study.

CT26 cells [4] = experiment: CCK8 proliferation assay on CT26 cells; format: cell-based, mouse; conditions: 0.1-1 mg/ml, 8 or 24 h, CCK8, n = 3
Protocol: To observe the impact of PPL-C on tumor cells and lymphocyte proliferation, the Counting Kit 8 (CCK8) reagent was employed. 20,000 cells/well were cultured in 96-well plates. Cells were treated for 8 or 24 hours with PPL-C (0.1, 0.25, 0.5, and 1 mg/ml) or not. Following the manufacturer guidelines, 10 µl of the CCK8 reagent (from Biotech Bioengineering, Cat: E606335) was applied to each well two hours before the incubation period ended. Using an ELISA plate reader from Molecular Devices (United States) the sample absorbance was calculated at 450 nm. To ensure repeatability, each experiment was replicated. By assessing absorbance at 450 nm, the CCK8 assay measures cell viability and proliferation.

Q: How did the “IFN-γ release in MLR” value (CD4+ T cells in MLR) turn out when `CC(C)[C@H](NC(=O)[C@H](CO)NC(=O)[C@@H](NC(=O)[C@@H](N)CO)C(C)C)C(=O)N[C@@H](CO)C(=O)N[C@@H](Cc1c[nH]cn1)C(=O)N[C@@H](Cc1ccccc1)C(=O)N[C@@H](CCC(N)=O)C(=O)N[C@@H](CCCCN)C(=O)N[C@H](C(=O)N[C@@H](Cc1c[nH]c2ccccc12)C(=O)N[C@H](C(=O)N[C@H](C(=O)NCC(=O)NCC(=O)NCC(=O)N[C@@H](CO)C(=O)N[C@@H](CCCCN)C(N)=O)C(C)C)C(C)C)C(C)C` [PPL-C] was run?
A: The value was “significantly higher release”.

Q: What about the T-cell proliferation ([1]; 20 μmol/L, CCK-8, n = 3) of the same compound?
A: Its T-cell proliferation is “increased significantly”.

Q: And the “IFN-γ release of CD4+ T lymphocytes” value ([1]; versus control peptide, 3 days, ELISA, n = 3)?
A: The value was “significant increase”.

Q: What about the “Effect of lymphocytes from treated mice on tumor cell proliferation” value (CT26 cells [2]) of the same compound?
A: Its value is “significantly inhibited tumor cell proliferation”.

Q: What about the “Percentage of NK cells in spleen (CD49b/Nkp46, upper right quadrant)” value [3] of the same compound?
A: The value was 7.79%.

Q: What about the “Growth of CT26 cells after peptide administration (direct cytotoxicity)” value (CT26 cells [4]) of the same compound?
A: Its value is “grew normally”.
